Literature values as cited in US20250241904A1, “COMPOSITION AND METHOD FOR PREVENTION AND TREATMENT OF CUTANEOUS RADIATION INJURY” (Rythera Therapeutics, Inc., priority 2022, published 2025).

Assays:
[1] = system: radiation proctopathy or proctitis; details: in vivo
mice = details: topical

Molecule | treating radiation proctopathy or proctitis [1] | also measured
Sucralfate | ineffective | –
O=C1O[C@H]([C@@H](O)CO)C(O)=C1O [Vitamin C] | – | results of irradiated breast tissue (radiation dermatitis; in vivo): without improvement
CN[C@H]1CC[C@@H](c2ccc(Cl)c(Cl)c2)c2ccccc21 [sertraline] | – | itch-evoked scratching (mice): significant itch-evoked scratching
NCCCNCCSP(=O)(O)O [amifostine] | – | dermato-cytoprotective effects (radiation dermatitis; retrospective analysis): significant dermato-cytoprotective effects
O=[N+]([O-])OCC(CO[N+](=O)[O-])O[N+](=O)[O-] [nitroglycerin] | ineffective | –
Nc1ccc(O)c(C(=O)O)c1 [5-ASA, 5-aminosalicylic acid] | unsuccessful | –
